Experimental data reported in PubChem BioAssay (NCI).
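Assay format: 96-well plates, 48-hour exposure. TGI: total growth inhibition.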

What was measured:
Assay in all cases: NCI anticancer screen, dose series, 48 h
LXFL 529 NSCLC = tested on: LXFL 529 NSCLC
HCT-15 colon = tested on: HCT-15 colon
SF-268 CNS = tested on: SF-268 CNS
HCC-2998 colon = tested on: HCC-2998 colon
CAKI-1 renal = tested on: CAKI-1 renal
786-0 renal = tested on: 786-0 renal
A498 renal = tested on: A498 renal
MALME-3M melanoma = tested on: MALME-3M melanoma
SK-MEL-2 melanoma = tested on: SK-MEL-2 melanoma
LOX IMVI melanoma = tested on: LOX IMVI melanoma
SF-539 CNS = tested on: SF-539 CNS
SN12C renal = tested on: SN12C renal
HOP-62 NSCLC = tested on: HOP-62 NSCLC
EKVX NSCLC = tested on: EKVX NSCLC
UACC-257 melanoma = tested on: UACC-257 melanoma
A549 NSCLC = tested on: A549 NSCLC
HL-60(TB) leukemia = tested on: HL-60(TB) leukemia
MOLT-4 leukemia = tested on: MOLT-4 leukemia
ACHN renal = tested on: ACHN renal
U251 CNS = tested on: U251 CNS
NCI-H23 lung = tested on: NCI-H23 lung
SNB-78 CNS = tested on: SNB-78 CNS
DLD-1 colon = tested on: DLD-1 colon
SK-OV-3 ovarian = tested on: SK-OV-3 ovarian
CCRF-CEM leukemia = tested on: CCRF-CEM leukemia
M19-MEL melanoma = tested on: M19-MEL melanoma
SNB-75 CNS = tested on: SNB-75 CNS
KM20L2 colon = tested on: KM20L2 colon
IGROV1 ovarian = tested on: IGROV1 ovarian
OVCAR-8 ovarian = tested on: OVCAR-8 ovarian
TK-10 renal = tested on: TK-10 renal
RXF 393 renal = tested on: RXF 393 renal
NCI-H460 lung = tested on: NCI-H460 lung
RPMI-8226 leukemia = tested on: RPMI-8226 leukemia
SF-295 CNS = tested on: SF-295 CNS
UO-31 renal = tested on: UO-31 renal
HT29 colon = tested on: HT29 colon
RXF-631 renal = tested on: RXF-631 renal
M14 melanoma = tested on: M14 melanoma
KM12 colon = tested on: KM12 colon
COLO 205 colon = tested on: COLO 205 colon
DMS 114 small cell lung = tested on: DMS 114 small cell lung
HCT-116 colon = tested on: HCT-116 colon
SK-MEL-5 melanoma = tested on: SK-MEL-5 melanoma
OVCAR-4 ovarian = tested on: OVCAR-4 ovarian
SW-620 colon = tested on: SW-620 colon
SNB-19 CNS = tested on: SNB-19 CNS
HOP-92 NSCLC = tested on: HOP-92 NSCLC
NCI-H522 lung = tested on: NCI-H522 lung
DMS 273 small cell lung = tested on: DMS 273 small cell lung
NCI-H226 lung = tested on: NCI-H226 lung
K-562 leukemia = tested on: K-562 leukemia
UACC-62 melanoma = tested on: UACC-62 melanoma
SK-MEL-28 melanoma = tested on: SK-MEL-28 melanoma
SR leukemia = tested on: SR leukemia
OVCAR-3 ovarian = tested on: OVCAR-3 ovarian
HOP-18 NSCLC = tested on: HOP-18 NSCLC
OVCAR-5 ovarian = tested on: OVCAR-5 ovarian
XF 498 CNS = tested on: XF 498 CNS

## CCCCCCCCCCCCCCCC(=O)OCC1OC(n2cc(F)c(=O)[nH]c2=O)C(NC(=O)N(CCCl)N=O)C(O)C1O (stereo not drawn)
LXFL 529 NSCLC
  TGI: 15.8 µM
HCT-15 colon
  TGI: 15.1 µM
SF-268 CNS
  TGI: 2.83 µM
HCC-2998 colon
  TGI: 11.3 µM
CAKI-1 renal
  TGI: 20.5 µM
786-0 renal
  TGI: 3.59 µM
A498 renal
  TGI: 10.1 µM
MALME-3M melanoma
  TGI: 10.1 µM
SK-MEL-2 melanoma
  TGI: 3.3 µM
LOX IMVI melanoma
  TGI: 2.24 µM
SF-539 CNS
  TGI: 1.36 µM
SN12C renal
  TGI: 15.6 µM
HOP-62 NSCLC
  TGI: 2.34 µM
EKVX NSCLC
  TGI: 7.18 µM
UACC-257 melanoma
  TGI: 17.8 µM
A549 NSCLC
  TGI: 7.14 µM
HL-60(TB) leukemia
  TGI: 7.69 µM
MOLT-4 leukemia
  TGI: > 39.9 µM
ACHN renal
  TGI: 10.9 µM
U251 CNS
  TGI: 3.74 µM
NCI-H23 lung
  TGI: 2.84 µM
SNB-78 CNS
  TGI: 18.1 µM
DLD-1 colon
  TGI: 12.5 µM
SK-OV-3 ovarian
  TGI: 14.3 µM
CCRF-CEM leukemia
  TGI: 6.58 µM
M19-MEL melanoma
  TGI: 9.91 µM
SNB-75 CNS
  TGI: 1.56 µM
KM20L2 colon
  TGI: 18.4 µM
IGROV1 ovarian
  TGI: 18.1 µM
OVCAR-8 ovarian
  TGI: 9.69 µM
TK-10 renal
  TGI: 26.1 µM
RXF 393 renal
  TGI: 8.37 µM
NCI-H460 lung
  TGI: 4.81 µM
RPMI-8226 leukemia
  TGI: 20.5 µM
SF-295 CNS
  TGI: 6.03 µM
UO-31 renal
  TGI: 29.6 µM
HT29 colon
  TGI: 14.1 µM
RXF-631 renal
  TGI: 17.9 µM
M14 melanoma
  TGI: 11.7 µM
KM12 colon
  TGI: 4.91 µM
COLO 205 colon
  TGI: 9.51 µM
DMS 114 small cell lung
  TGI: 5.02 µM
HCT-116 colon
  TGI: 3.07 µM
SK-MEL-5 melanoma
  TGI: 9.8 µM
OVCAR-4 ovarian
  TGI: 20.5 µM
SW-620 colon
  TGI: 6.58 µM
SNB-19 CNS
  TGI: 8.71 µM
HOP-92 NSCLC
  TGI: 11.6 µM
NCI-H522 lung
  TGI: 10 µM
DMS 273 small cell lung
  TGI: 4.3 µM
NCI-H226 lung
  TGI: 24 µM
K-562 leukemia
  TGI: 25.6 µM
UACC-62 melanoma
  TGI: 1.17 µM
SK-MEL-28 melanoma
  TGI: 7.96 µM
SR leukemia
  TGI: 5.8 µM
OVCAR-3 ovarian
  TGI: 20.9 µM
HOP-18 NSCLC
  TGI: 33.3 µM
OVCAR-5 ovarian
  TGI: 25.9 µM

## CC1(Cl)CC(C)(/C=C/Cl)C(Cl)CC1Cl (stereo not drawn)
LXFL 529 NSCLC
  TGI: 28.3 µM
HCT-15 colon
  TGI: 27.3 µM
SF-268 CNS
  TGI: 31.1 µM
HCC-2998 colon
  TGI: 32 µM
CAKI-1 renal
  TGI: 33.3 µM
786-0 renal
  TGI: 29.1 µM
A498 renal
  TGI: 34 µM
MALME-3M melanoma
  TGI: 29.6 µM
SK-MEL-2 melanoma
  TGI: 26.3 µM
SF-539 CNS
  TGI: 34.4 µM
SN12C renal
  TGI: 31 µM
HOP-62 NSCLC
  TGI: 34.7 µM
EKVX NSCLC
  TGI: 26.4 µM
A549 NSCLC
  TGI: 31.1 µM
MOLT-4 leukemia
  TGI: > 100 µM
ACHN renal
  TGI: 27.8 µM
U251 CNS
  TGI: 30.8 µM
XF 498 CNS
  TGI: 27.4 µM
NCI-H23 lung
  TGI: 44.1 µM
SNB-78 CNS
  TGI: 46.8 µM
DLD-1 colon
  TGI: 35.7 µM
SK-OV-3 ovarian
  TGI: 66.4 µM
CCRF-CEM leukemia
  TGI: 59 µM
M19-MEL melanoma
  TGI: 59.1 µM
SNB-75 CNS
  TGI: 41.4 µM
KM20L2 colon
  TGI: 31.6 µM
IGROV1 ovarian
  TGI: 30.4 µM
OVCAR-8 ovarian
  TGI: 31.3 µM
TK-10 renal
  TGI: 76.7 µM
RXF 393 renal
  TGI: 30.6 µM
NCI-H460 lung
  TGI: 28.7 µM
SF-295 CNS
  TGI: 28.5 µM
UO-31 renal
  TGI: 29.8 µM
HT29 colon
  TGI: 27.3 µM
RXF-631 renal
  TGI: 28.7 µM
M14 melanoma
  TGI: 31.2 µM
KM12 colon
  TGI: 31.3 µM
HCT-116 colon
  TGI: 30 µM
SK-MEL-5 melanoma
  TGI: 30.2 µM
OVCAR-4 ovarian
  TGI: 37.1 µM
SW-620 colon
  TGI: 30.8 µM
SNB-19 CNS
  TGI: 31.4 µM
HOP-92 NSCLC
  TGI: 16.8 µM
NCI-H522 lung
  TGI: 31.6 µM
K-562 leukemia
  TGI: 57 µM
UACC-62 melanoma
  TGI: 34.1 µM
SK-MEL-28 melanoma
  TGI: 29.4 µM
SR leukemia
  TGI: 44.6 µM
OVCAR-3 ovarian
  TGI: 28 µM
OVCAR-5 ovarian
  TGI: 34.2 µM
